pIC50: −log10 of the molar value.
What was measured:
[1] = test system: MRK-nu-1; experiment: cells; type: functional, cell-based, Homo sapiens; details: Homo sapiens, MRK-nu-1;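 also: cell viability assay measuring growth suppression of human MRK-nu-1 cells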
Description: SANGER: Inhibition of human MRK-nu-1 cell growth in a cell viability assay.

[2] = test system: OPM-2; experiment: cells; type: functional, cell-based, Homo sapiens; details: Homo sapiens, OPM-2;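 also: growth of OPM-2 cells measured with a viability assay, IC50 for suppression of proliferation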
Description: SANGER: Inhibition of human OPM-2 cell growth in a cell viability assay.

[3] = test system: NCI-H748; experiment: cells; type: functional, cell-based, Homo sapiens; details: Homo sapiens, NCI-H748;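 also: growth inhibition of NCI-H748 cells, measured by a cell viability assay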
Description: SANGER: Inhibition of human NCI-H748 cell growth in a cell viability assay.

[4] = test system: CHP-126; experiment: cells; type: functional, cell-based, Homo sapiens; details: Homo sapiens, CHP-126
Description: SANGER: Inhibition of human CHP-126 cell growth in a cell viability assay.

[5] = test system: NCI-H2171; experiment: cells; type: functional, cell-based, Homo sapiens; details: Homo sapiens, NCI-H2171;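 also: growth inhibition of human NCI-H2171 cells, read out by a cell viability assay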
Description: SANGER: Inhibition of human NCI-H2171 cell growth in a cell viability assay.

[6] = test system: SU-DHL-1; experiment: SANGER: Inhibition of human SU-DHL-1 cell growth in a cell viability assay.; type: functional, cell-based; details: Homo sapiens, SU-DHL-1
[7] = test system: NCI-H2081; experiment: cells; type: functional, cell-based, Homo sapiens; details: Homo sapiens, NCI-H2081;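 also: growth inhibition of human NCI-H2081 cells, read out with a cell viability assay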
Description: SANGER: Inhibition of human NCI-H2081 cell growth in a cell viability assay.

[8] = test system: DMS-153; experiment: cells; type: functional, cell-based, Homo sapiens; details: Homo sapiens, DMS-153
Description: SANGER: Inhibition of human DMS-153 cell growth in a cell viability assay.

[9] = test system: BOKU; experiment: cells; type: functional, cell-based, Homo sapiens; details: Homo sapiens, BOKU;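 also: growth inhibition of the human BOKU cell line, read out by a cell viability assay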
Description: SANGER: Inhibition of human BOKU cell growth in a cell viability assay.

Row | Structure (SMILES) | pIC50 [1] | pIC50 [2] | pIC50 [3] | pIC50 [4] | pIC50 [5] | pIC50 [6] | pIC50 [7] | pIC50 [8] | pIC50 [9]
1 | COc1cc(N2CCN(C)CC2)ccc1Nc1ncc2c(n1)N(C)c1ccccc1C(=O)N2C | < 5.10 | 5.48 | < 5.10 | < 5.10 | < 5.10 | < 5.10 | < 5.10 | < 5.10 | 
2 | COc1cc2ncn(-c3cc(OCc4ccccc4S(C)(=O)=O)c(C#N)s3)c2cc1OC [GSK-319347A] | < 5.30 | < 5.30 | < 5.30 | < 5.30 | < 5.30 | < 5.30 | < 5.30 | < 5.30 | 
3 | Cc1ccc(-c2c(C(=O)CCl)n(CCCO)c3ncnc(N)c23)cc1 | 5.60 | < 5.40 | < 5.40 | < 5.40 | < 5.40 | < 5.40 | < 5.40 | < 5.40 | < 5.40
4 | OCCCNc1cc(-c2ccnc(Nc3cccc(Cl)c3)n2)ccn1 | 7.43 | 6.82 | 7.12 | 6.87 | < 6.59 | 6.68 | < 6.59 | < 6.59 | 7.27
5 | CC[C@H](CO)Nc1nc(NCc2ccccc2)c2ncn(C(C)C)c2n1 [SELICICLIB] | 5.15 | < 4.80 | < 4.80 | < 4.80 | < 4.80 | < 4.80 | < 4.80 | < 4.80 | 
6 | COc1cc2ncn(-c3cc(OCc4ccccc4C(F)(F)F)c(C(N)=O)s3)c2cc1OC [GW843682X] | 7.52 | 7.35 | < 6.59 | < 6.59 | < 6.59 | 7.03 | < 6.59 | < 6.59 | 6.87
7 | N[C@@H](CSC(c1ccccc1)(c1ccccc1)c1ccccc1)C(=O)O [S-TRITYL-L-CYSTEINE] | 6.12 | 5.48 | < 5.29 | < 5.29 | < 5.29 | < 5.29 | < 5.29 | < 5.29 | < 5.29

Source: ChEMBL document CHEMBL1201861, “Genomics of Drug Sensitity in Cancer screening data, Wellcome Trust Sanger Institute”
